Measured values reported in PMC6934184, “Selective DNA-PKcs inhibition extends the therapeutic index of localized radiotherapy and chemotherapy” (The Journal of Clinical Investigation, 2019).

Molecular target: T1, STK23 (MSSK1) (Homo sapiens, UniProt Q9UPE1)
T1 construct: purchased Thermo Fisher Scientific (Life Technologies) SelectScreen
Test: SelectScreen Z'LYTE
Type: biochemical
Summary of the method: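 NU5455 was profiled across the SelectScreen Broad panel of kinase activity and binding assays. Z'LYTE reactions such as CSF1R ran at apparent Km ATP, while the Adapta CAMK1 assay used ATP listed as 10. Values are given as percent.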

T1 sequence (Q9UPE1 whole entry): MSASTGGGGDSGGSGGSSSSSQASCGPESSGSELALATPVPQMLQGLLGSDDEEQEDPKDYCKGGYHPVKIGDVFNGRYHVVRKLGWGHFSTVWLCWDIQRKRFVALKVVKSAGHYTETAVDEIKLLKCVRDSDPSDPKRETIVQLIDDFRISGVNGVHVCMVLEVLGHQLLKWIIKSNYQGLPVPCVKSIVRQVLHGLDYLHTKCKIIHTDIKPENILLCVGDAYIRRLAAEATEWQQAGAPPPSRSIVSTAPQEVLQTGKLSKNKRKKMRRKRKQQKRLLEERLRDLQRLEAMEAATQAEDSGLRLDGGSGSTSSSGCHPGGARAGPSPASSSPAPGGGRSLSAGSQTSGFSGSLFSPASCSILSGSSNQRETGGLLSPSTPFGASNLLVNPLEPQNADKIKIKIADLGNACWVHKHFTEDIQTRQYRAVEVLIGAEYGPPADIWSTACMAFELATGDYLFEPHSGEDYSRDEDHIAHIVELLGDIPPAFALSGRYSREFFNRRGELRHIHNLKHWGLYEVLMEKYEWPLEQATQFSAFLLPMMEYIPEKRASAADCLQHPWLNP

`CN(C(=O)CN1CCOCC1)c1ccc2sc3c(-c4cccc5c(=O)cc(N6CC7CCC(C6)O7)oc45)cccc3c2c1` [NU5455] was tested, and the inhibition at 1 µM was 2%.
